In paper PMC6201685 (Biochemistry, 2016):

Legend:
Rv2671 [1] = target: T1, Rv2671 (Mycobacterium tuberculosis, UniProt P71968); type: biochemical
Rv2671 [2] = target: T1, Rv2671; test: X-ray cocrystal structure; type: biochemical
[3] = tested on: Nc1nc2c(c(=O)[nH]1)N=C(CNc1ccc(C(=O)N[C@@H](CCC(=O)O)C(=O)O)cc1)CN2; test: purified protein
[4] = tested on: Nc1nc2c(c(=O)[nH]1)N=C(CNc1ccc(C(=O)O)cc1)CN2; test: purified protein

How did the “cosubstrate in DHF reduction assay with purified enzyme (340 nm, HPLC)” value (Rv2671 [1]) turn out when NC(=O)C1=CN([C@@H]2O[C@H](COP(=O)(O)OP(=O)(O)OC[C@H]3O[C@@H](n4cnc5c(N)ncnc54)[C@H](OP(=O)(O)O)[C@@H]3O)[C@@H](O)[C@H]2O)C=CC1 [NADPH] was run?
The value was “Tetrahydrofolate, the product of the reaction, was observed by HPLC spectrometry after the addition of DHF and NADPH to Rv2671”.

For COc1cc(NCc2ccc3nc(N)nc(N)c3c2C)cc(OC)c1OC [TMQ, trimetrexate], which IC50 (Rv2671 [2]) is on record?
The IC50 was 280 ± 20 nM.

Which results are given for “Rv2671 (Mycobacterium tuberculosis H37Rv)”?
Km [3]: 136 ± 32 µM; Km [4]: 180.2 ± 25.5 µM
